In ChEMBL document CHEMBL4028801, “A multifactorial approach to hepatobiliary transporter assessment enables improved therapeutic compound development” (Toxicol Sci, 2013):
Structures can show the parent of a compound that is named as a salt.

How the values were obtained:
Bile salt export pump = Bile salt export pump (Homo sapiens, UniProt O95342); test: Inhibition of human BSEP overexpressed in Sf9 cell membrane vesicles assessed as uptake of [3H]-taurocholate in presence of ATP measured after 15 to 20 mins by membrane vesicle transport assay; assay type: ADME, cell-based
Bile salt export pump, sequence (O95342 whole entry): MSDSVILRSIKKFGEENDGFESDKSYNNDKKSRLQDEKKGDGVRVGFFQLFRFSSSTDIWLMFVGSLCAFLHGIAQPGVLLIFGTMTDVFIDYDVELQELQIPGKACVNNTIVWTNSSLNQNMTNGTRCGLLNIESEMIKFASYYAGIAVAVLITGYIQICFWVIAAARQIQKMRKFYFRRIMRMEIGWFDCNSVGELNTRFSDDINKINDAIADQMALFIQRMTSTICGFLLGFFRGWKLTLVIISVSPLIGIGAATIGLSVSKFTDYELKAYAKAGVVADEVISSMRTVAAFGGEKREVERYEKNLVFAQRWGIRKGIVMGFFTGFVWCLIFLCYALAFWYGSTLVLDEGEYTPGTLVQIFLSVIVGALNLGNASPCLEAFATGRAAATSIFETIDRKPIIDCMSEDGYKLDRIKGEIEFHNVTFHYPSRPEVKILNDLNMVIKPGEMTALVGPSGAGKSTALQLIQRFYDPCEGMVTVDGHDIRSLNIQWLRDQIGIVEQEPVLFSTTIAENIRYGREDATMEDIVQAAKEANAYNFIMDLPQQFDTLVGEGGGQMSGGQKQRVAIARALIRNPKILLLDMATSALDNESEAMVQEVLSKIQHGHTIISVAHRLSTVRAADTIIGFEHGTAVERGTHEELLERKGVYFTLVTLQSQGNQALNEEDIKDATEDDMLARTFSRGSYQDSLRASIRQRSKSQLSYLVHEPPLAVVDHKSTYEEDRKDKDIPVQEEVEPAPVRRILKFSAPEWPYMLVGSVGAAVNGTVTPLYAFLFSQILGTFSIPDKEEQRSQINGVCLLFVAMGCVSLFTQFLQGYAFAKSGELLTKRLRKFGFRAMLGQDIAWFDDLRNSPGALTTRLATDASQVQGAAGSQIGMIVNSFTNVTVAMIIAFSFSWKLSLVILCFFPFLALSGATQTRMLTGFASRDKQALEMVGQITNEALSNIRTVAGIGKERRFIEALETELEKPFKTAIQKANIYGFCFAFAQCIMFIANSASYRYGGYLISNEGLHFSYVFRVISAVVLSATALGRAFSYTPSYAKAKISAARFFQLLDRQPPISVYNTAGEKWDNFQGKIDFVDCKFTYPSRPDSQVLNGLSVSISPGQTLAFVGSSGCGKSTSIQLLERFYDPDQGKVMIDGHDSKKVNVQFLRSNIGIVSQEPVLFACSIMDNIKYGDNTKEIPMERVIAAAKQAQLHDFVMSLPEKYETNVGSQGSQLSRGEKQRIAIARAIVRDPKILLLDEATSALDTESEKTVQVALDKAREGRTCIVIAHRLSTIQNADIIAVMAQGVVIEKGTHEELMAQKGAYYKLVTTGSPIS

[1] = target: ATP-binding cassette sub-family C member 2 (Homo sapiens, UniProt Q92887); test: Inhibition of human MRP2 overexpressed in Sf9 cell membrane vesicles assessed as uptake of [3H]-estradiol-17beta-D-glucuronide in presence of ATP and GSH measured after 20 mins by membrane vesicle transport assay
ATP-binding cassette sub-family C member 2, sequence (Q92887 whole entry): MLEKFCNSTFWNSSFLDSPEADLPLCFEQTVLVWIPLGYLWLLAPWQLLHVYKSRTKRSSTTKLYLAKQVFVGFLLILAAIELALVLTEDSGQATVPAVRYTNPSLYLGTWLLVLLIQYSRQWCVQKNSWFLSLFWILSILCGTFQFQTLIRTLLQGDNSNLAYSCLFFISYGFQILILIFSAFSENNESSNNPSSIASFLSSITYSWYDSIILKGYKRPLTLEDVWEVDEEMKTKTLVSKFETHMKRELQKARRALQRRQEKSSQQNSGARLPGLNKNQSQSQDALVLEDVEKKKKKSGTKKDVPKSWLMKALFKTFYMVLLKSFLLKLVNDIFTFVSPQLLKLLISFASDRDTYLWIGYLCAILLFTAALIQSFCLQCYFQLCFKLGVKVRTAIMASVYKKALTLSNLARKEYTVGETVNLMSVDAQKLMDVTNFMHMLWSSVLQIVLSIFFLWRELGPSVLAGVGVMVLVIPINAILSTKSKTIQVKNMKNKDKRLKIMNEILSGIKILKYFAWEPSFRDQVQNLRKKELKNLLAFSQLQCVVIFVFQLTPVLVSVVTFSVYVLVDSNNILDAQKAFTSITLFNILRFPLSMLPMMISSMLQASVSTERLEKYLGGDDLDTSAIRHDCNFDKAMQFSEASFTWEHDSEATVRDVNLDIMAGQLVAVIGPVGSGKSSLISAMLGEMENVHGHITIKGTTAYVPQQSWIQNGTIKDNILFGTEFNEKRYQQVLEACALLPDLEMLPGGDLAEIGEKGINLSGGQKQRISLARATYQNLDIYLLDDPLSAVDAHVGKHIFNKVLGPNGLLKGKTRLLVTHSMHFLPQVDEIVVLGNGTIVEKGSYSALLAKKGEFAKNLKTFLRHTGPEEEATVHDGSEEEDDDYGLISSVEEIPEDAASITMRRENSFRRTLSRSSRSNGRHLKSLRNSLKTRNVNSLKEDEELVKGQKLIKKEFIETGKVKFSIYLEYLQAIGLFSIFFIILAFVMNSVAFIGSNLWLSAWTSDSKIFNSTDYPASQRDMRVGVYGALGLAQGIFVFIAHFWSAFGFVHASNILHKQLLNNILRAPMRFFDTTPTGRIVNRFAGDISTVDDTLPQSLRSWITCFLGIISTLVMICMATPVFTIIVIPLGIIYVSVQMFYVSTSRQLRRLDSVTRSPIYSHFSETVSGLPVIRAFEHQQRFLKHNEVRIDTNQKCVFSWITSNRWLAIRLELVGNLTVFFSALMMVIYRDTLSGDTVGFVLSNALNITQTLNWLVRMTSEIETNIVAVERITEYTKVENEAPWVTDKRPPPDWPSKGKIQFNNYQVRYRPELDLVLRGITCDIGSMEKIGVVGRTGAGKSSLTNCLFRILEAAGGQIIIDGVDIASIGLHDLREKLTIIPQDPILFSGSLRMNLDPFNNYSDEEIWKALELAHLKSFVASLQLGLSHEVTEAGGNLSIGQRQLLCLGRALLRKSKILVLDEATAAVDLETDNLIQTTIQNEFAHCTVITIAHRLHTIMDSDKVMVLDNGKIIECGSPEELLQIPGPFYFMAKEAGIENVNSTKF

[2] = target: ATP-binding cassette sub-family C member 3 (Homo sapiens, UniProt O15438); test: Inhibition of human MRP3 overexpressed in Sf9 insect cell membrane vesicles assessed as uptake of [3H]-estradiol-17beta-D-glucuronide in presence of ATP and GSH measured after 10 mins by membrane vesicle transport assay; assay type: ADME, cell-based
ATP-binding cassette sub-family C member 3, sequence (O15438 whole entry): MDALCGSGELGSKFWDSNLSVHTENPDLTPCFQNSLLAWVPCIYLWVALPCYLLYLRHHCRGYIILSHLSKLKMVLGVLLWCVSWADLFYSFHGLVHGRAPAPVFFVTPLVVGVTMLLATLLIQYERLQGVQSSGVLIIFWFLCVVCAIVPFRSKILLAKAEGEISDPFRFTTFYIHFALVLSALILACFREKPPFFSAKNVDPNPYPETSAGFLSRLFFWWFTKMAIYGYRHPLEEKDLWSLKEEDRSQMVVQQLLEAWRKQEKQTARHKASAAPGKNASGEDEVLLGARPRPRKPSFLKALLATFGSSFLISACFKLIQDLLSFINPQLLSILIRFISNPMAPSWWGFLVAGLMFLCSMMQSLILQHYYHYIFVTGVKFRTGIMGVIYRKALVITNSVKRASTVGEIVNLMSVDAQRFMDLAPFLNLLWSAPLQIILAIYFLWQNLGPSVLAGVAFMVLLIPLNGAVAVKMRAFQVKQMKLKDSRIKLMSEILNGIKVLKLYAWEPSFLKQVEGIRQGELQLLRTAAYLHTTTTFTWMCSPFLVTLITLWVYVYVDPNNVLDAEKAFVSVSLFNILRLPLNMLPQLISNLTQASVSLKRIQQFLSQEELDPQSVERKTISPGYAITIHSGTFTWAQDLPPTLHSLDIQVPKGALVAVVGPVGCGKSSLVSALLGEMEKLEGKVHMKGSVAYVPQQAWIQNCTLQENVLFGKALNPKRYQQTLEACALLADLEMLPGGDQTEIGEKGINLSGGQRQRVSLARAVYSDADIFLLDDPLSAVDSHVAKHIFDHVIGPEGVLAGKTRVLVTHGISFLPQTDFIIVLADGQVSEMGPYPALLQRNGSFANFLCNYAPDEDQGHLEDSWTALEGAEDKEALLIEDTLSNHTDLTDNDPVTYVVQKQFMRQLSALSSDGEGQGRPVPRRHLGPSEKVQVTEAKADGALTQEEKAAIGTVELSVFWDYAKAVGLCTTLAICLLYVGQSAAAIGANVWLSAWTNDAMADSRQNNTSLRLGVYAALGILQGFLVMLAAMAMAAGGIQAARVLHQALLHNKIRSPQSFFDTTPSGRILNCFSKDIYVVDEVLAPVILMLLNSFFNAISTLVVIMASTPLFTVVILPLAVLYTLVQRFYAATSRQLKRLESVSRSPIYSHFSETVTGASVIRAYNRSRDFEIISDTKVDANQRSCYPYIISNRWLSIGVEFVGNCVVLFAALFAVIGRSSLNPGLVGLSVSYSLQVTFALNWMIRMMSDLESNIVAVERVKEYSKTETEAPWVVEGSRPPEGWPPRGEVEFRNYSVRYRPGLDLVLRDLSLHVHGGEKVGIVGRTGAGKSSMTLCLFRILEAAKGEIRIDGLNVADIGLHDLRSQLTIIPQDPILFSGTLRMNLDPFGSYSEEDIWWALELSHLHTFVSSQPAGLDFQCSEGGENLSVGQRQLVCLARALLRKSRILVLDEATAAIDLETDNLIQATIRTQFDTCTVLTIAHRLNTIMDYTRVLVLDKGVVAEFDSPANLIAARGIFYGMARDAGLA

[3] = target: T1, ATP-binding cassette sub-family C member 4 (Homo sapiens, UniProt O15439); test: Inhibition of human MRP4 overexpressed in Sf9 cell membrane vesicles assessed as uptake of [3H]-estradiol-17beta-D-glucuronide in presence of ATP and GSH measured after 20 mins by membrane vesicle transport assay; assay type: ADME, cell-based
T1 sequence (O15439 whole entry): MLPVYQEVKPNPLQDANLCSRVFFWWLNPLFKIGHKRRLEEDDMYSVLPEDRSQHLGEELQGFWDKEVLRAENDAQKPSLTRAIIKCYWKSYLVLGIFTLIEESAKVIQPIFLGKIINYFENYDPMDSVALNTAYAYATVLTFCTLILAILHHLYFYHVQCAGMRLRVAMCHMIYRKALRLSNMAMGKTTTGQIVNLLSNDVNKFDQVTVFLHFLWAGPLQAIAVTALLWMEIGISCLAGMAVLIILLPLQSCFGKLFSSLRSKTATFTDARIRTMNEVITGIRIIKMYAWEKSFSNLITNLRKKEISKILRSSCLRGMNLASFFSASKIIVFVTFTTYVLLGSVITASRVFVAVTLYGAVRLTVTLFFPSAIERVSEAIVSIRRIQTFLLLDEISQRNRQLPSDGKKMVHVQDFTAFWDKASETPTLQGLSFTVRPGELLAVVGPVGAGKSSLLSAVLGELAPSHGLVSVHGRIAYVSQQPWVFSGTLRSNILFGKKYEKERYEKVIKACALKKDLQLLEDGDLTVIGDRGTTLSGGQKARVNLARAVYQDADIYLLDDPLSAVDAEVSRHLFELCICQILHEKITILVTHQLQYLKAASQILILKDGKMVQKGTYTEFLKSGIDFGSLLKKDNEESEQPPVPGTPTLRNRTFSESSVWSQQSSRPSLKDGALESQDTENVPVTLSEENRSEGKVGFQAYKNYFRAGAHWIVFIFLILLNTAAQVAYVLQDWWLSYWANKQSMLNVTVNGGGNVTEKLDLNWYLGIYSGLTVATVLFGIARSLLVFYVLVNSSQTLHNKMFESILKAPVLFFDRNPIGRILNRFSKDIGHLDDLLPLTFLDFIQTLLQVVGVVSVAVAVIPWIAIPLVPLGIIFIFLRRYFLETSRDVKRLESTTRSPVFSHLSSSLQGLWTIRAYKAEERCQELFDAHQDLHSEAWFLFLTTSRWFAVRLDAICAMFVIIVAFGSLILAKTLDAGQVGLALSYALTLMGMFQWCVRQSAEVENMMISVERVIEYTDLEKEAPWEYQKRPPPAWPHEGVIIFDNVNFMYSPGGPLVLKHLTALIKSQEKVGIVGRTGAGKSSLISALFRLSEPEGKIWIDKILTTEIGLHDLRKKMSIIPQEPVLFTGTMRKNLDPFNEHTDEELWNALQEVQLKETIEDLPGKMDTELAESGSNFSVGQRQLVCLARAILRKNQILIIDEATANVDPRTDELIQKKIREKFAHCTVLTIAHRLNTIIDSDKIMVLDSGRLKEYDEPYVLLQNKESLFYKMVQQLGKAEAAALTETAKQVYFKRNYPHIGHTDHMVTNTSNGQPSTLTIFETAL

Structure (SMILES)	IC50 (Bile salt export pump) [µM]	IC50 [1] [µM]	IC50 [2] [µM]	IC50 [3] [µM]
COc1cccc([C@]2(O)CCCC[C@H]2CN(C)C)c1	> 133			
Sc1ncnc2nc[nH]c12 [MERCAPTOPURINE ANHYDROUS]	> 133			
O=C(O)[C@H]1/C(=C/CO)O[C@@H]2CC(=O)N21 [CLAVULANATE POTASSIUM]	> 133			
Nc1nnc(-c2cccc(Cl)c2Cl)c(N)n1 [LAMOTRIGINE]	> 133			
N#Cc1ccc(C(c2ccc(C#N)cc2)n2cncn2)cc1 [LETROZOLE]	> 133			
CCN(CC)CCNC(=O)c1ccc(N)cc1 [PROCAINAMIDE]		> 133	> 133	> 133
COc1cc([C@@H]2c3cc4c(cc3[C@@H](O[C@@H]3O[C@@H]5CO[C@@H](C)O[C@H]5[C@H](O)[C@H]3O)[C@H]3COC(=O)[C@H]23)OCO4)cc(OC)c1O [ETOPOSIDE]		> 133	> 133	> 133
CC(C)(S)[C@@H](N)C(=O)O [PENICILLAMINE]	> 133			
C[C@@H](O)[C@H]1C(=O)N2C(C(=O)O)=C(SCCN=CN)C[C@H]12	> 133			
CC1(COc2ccc(CC3SC(=O)NC3=O)cc2)CCCCC1 (centres undefined) [CIGLITAZONE]		> 133	> 133	> 133
CC[C@@H](CO)NCCN[C@@H](CC)CO [ETHAMBUTOL HYDROCHLORIDE]		> 133	88.2	> 133
CN/C(=N/CCSCc1nc[nH]c1C)NC#N [CIMETIDINE]		> 133	> 133	> 133
C(=C\c1ccccc1)/CN1CCN(C(c2ccccc2)c2ccccc2)CC1 [CINNARIZINE]		> 133	> 133	> 133
CN(C)CCCN1c2ccccc2CCc2ccc(Cl)cc21 [CLOMIPRAMINE]		> 133	> 133	> 133
CNCCCC12CCC(c3ccccc31)c1ccccc12 [MAPROTILINE]		> 133	> 133	> 133
O=c1[nH]cnc2c1ncn2[C@H]1CC[C@@H](CO)O1 [DIDANOSINE]		> 133	> 133	> 133
C[C@H](N[C@@H](CCc1ccccc1)C(=O)O)C(=O)N1CCC[C@H]1C(=O)O [ENALAPRILAT ANHYDROUS]		> 133	> 133	> 133
Nc1ccn([C@@H]2O[C@H](CO)[C@@H](O)[C@@H]2O)c(=O)n1 [CYTARABINE]		> 133	> 133	> 133
CN(C)[C@@H]1C(O)=C(C(N)=O)C(=O)[C@@]2(O)C(O)=C3C(=O)c4c(O)cccc4[C@@](C)(O)[C@H]3C[C@@H]12 [TETRACYCLINE]		> 133	> 133	> 133
OC(Cn1cncn1)(Cn1cncn1)c1ccc(F)cc1F [FLUCONAZOLE]		> 133	> 133	> 133
C[C@]12C=CC(=O)C=C1CC[C@@H]1[C@@H]2[C@@H](O)C[C@@]2(C)[C@H]1CC[C@]2(O)C(=O)CO [PREDNISOLONE]		> 133	> 133	> 133
COc1c(O[C@@H]2O[C@H](CO)[C@@H](O)[C@H](O)[C@H]2O)cc2c(c1OC)-c1ccc(SC)c(=O)cc1[C@@H](NC(C)=O)CC2 [THIOCOLCHICOSIDE]	> 133			
O=C1CCc2ccc(OCCCCN3CCN(c4cccc(Cl)c4Cl)CC3)cc2N1 [ARIPIPRAZOLE]		> 133	> 133	> 133
O=C1CN(/N=C/c2ccc([N+](=O)[O-])o2)C(=O)N1 [NITROFURANTOIN]		> 133	> 133	20.9

Structure (SMILES)	IC50 (Bile salt export pump) [µM]	IC50 [1] [µM]	IC50 [2] [µM]	IC50 [3] [µM]
Cc1nc2n(c(=O)c1CCN1CCC(c3noc4cc(F)ccc34)CC1)CCCC2 [RISPERIDONE]		> 133	> 133	> 133
CC1=C(C(=O)O)N2C(=O)[C@@H](NC(=O)[C@H](N)c3ccc(O)cc3)[C@H]2SC1 [CEFADROXIL]		> 133	> 133	> 133
COC[C@H]1OC(=O)c2coc3c2[C@@]1(C)C1=C(C3=O)[C@@H]2CCC(=O)[C@@]2(C)C[C@H]1OC(C)=O [WORTMANNIN]		46.1	> 133	63.2
COC(=O)Nc1nc2ccc(C(=O)c3ccccc3)cc2[nH]1 [MEBENDAZOLE]		> 133	> 133	15.5
Cc1ccc(O)c([C@H](CCN(C(C)C)C(C)C)c2ccccc2)c1 [TOLTERODINE TARTRATE]		> 133	> 133	> 133
CN1CCN(CCCN2c3ccccc3Sc3ccc(Cl)cc32)CC1 [PROCHLORPERAZINE]		> 133	> 133	> 133
COc1cc2c(c(OC)c1OC)-c1ccc(OC)c(=O)cc1[C@@H](NC(C)=O)CC2 [COLCHICINE]		> 133	> 133	> 133
COc1ccc([C@@H]2Sc3ccccc3N(CCN(C)C)C(=O)[C@@H]2OC(C)=O)cc1 [DILTIAZEM]		> 133	> 133	> 133
COc1cc2nc(N(C)CCCNC(=O)C3CCCO3)nc(N)c2cc1OC (centres undefined) [ALFUZOSIN HYDROCHLORIDE]	> 133			
OC[C@H]1O[C@@H](n2cnc3c2NC=NC[C@H]3O)C[C@@H]1O [PENTOSTATIN]	> 133			
CN(C)CC[C@@H](c1ccc(Br)cc1)c1ccccn1 [DEXBROMPHENIRAMINE MALEATE]		> 133	> 133	> 133
C[C@@H](O)[C@H]1C(=O)N2C(C(=O)O)=C(S[C@@H]3CN[C@H](CNS(N)(=O)=O)C3)[C@H](C)[C@H]12 [DORIPENEM]		> 133	> 133	> 133
CN1[C@@H]2CC[C@H]1C[C@@H](OC(=O)C(CO)c1ccccc1)C2 (mixture of isomers) [ATROPINE]		> 133	> 133	> 133
Nc1ccn([C@@H]2CS[C@H](CO)O2)c(=O)n1 [LAMIVUDINE]		> 133	> 133	> 133
NCCCC[C@H](N[C@@H](CCc1ccccc1)C(=O)O)C(=O)N1CCC[C@H]1C(=O)O [LISINOPRIL ANHYDROUS]		> 133	> 133	> 133
CNC(=C[N+](=O)[O-])NCCSCc1ccc(CN(C)C)o1 [RANITIDINE]		> 133	> 133	> 133
CC(=O)Nc1nnc(S(N)(=O)=O)s1 [ACETAZOLAMIDE]		> 133	> 133	> 133
C=C(c1ccc(C(=O)O)cc1)c1cc2c(cc1C)C(C)(C)CCC2(C)C [BEXAROTENE]		> 133	> 133	> 133
CC(C)NCC(O)COc1cccc2[nH]ccc12 (centres undefined) [PINDOLOL]		> 133	> 133	> 133
OC(CCN1CCCC1)(c1ccccc1)C1CCCCC1 (centres undefined) [PROCYCLIDINE]		> 133	> 133	> 133
CCCCC[C@H](O)/C=C/[C@H]1[C@H](O)CC(=O)[C@@H]1CCCCCCC(=O)O [ALPROSTADIL]		> 133	26.9	2.3
NS(=O)(=O)c1cc(C(=O)O)c(NCc2ccco2)cc1Cl [FUROSEMIDE]		> 133	> 133	> 133
COCCCOc1cc(C[C@@H](C[C@H](N)[C@@H](O)C[C@H](C(=O)NCC(C)(C)C(N)=O)C(C)C)C(C)C)ccc1OC [ALISKIREN FUMARATE]	> 133			
